Results taken from patent publication US11524940B1, “Inhibitors of cysteine proteases and methods of use thereof” (priority 2020, dated 2022).
Like-named read-outs stand apart in the source and are kept apart here.

Legend:
SARS-CoV2 Mpro = SARS-CoV2 Mpro (Severe acute respiratory syndrome coronavirus 2 (2019-nCoV) (SARS-CoV-2), UniProt P0DTD1); experiment: COVID-19 (SARS-CoV2) Mpro enzymatic assay; format: biochemical; settings: 25 nM Mpro, 25 μM substrate
229E Mpro = 229E Mpro (Human coronavirus 229E (HCoV-229E), UniProt P0C6X1); experiment: 229E Mpro activity; format: biochemical
Sequence of 229E Mpro (P0C6X1 2966-3267 limits assumed): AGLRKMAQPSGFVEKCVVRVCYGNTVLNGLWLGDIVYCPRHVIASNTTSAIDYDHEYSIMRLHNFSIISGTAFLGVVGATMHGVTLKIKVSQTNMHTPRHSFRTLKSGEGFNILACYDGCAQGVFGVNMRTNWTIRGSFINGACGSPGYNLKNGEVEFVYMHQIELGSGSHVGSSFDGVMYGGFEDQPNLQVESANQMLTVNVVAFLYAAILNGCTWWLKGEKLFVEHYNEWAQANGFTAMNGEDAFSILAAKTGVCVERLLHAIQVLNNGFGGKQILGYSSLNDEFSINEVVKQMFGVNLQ
Description: Compounds are assayed using standard methods to assess compound activity and IC50. […] The assay buffer contains 20 mM of Tris-HCl (pH 7.3), 100 mM of NaCl, 1 mM of EDTA, 5mM of TCEP and 0.1% BSA.

Row | SMILES | IC50 (SARS-CoV2 Mpro) [µM] | EC50 (229E Mpro; read-out: 229E Mpro EC50) [µM] | EC50 (229E Mpro; 229E Mpro EC50) [µM]
1 | COc1cccc2[nH]c(C(=O)N3Cc4ccccc4C3C(=O)N[C@H](C#N)C[C@@H]3CCNC3=O)cc12 (single isomer, unassigned) [429A (Isomer 1)] | 10 to 30 | > 30 | –
2 | COc1cccc2[nH]c(C(=O)N3Cc4ccccc4C3C(=O)N[C@H](C#N)C[C@@H]3CCNC3=O)cc12 (single isomer, unassigned) [429A (Isomer 2)] | > 30 | > 30 | –
3 | CC(C)(C)OC(=O)N1CCCCC12CCN(C(CC1CC1)C(=O)N[C@H](C#N)C[C@@H]1CCNC1=O)C2=O (single isomer, unassigned) [473 (Isomer 1)] | > 30 | > 30 | –
4 | COc1cccc2[nH]c(C(=O)N[C@@H](CC3CC3)C(=O)N[C@@]3(C#N)C[C@@H]4CC[C@H]3[C@@H]3C(=O)NC(=O)[C@H]43)cc12 (single isomer, unassigned) [489 (Isomer 2)] | > 30 | > 30 | –
5 | N#C[C@@]1(NC(=O)[C@H](CC2CC2)NC(=O)OCc2ccccc2)C[C@@H]2CC[C@H]1[C@@H]1C(=O)NC(=O)[C@H]21 (single isomer, unassigned) [495 (Isomer 2)] | > 30 | > 30 | –
6 | COc1cccc2[nH]c(C(=O)N3CC4(CCC4)CC3C(=O)N[C@H](C#N)C[C@@H]3CCCNC3=O)cc12 (single isomer, unassigned) [719A (Isomer 1)] | 10 to 30 | 10 to 30 | –
7 | N#C[C@H](C[C@@H]1CCCNC1=O)NC(=O)C1CC2(CCCCC2)CN1C(=O)c1cc2cccc(Cl)c2[nH]1 (single isomer, unassigned) [731 (Isomer 2)] | 2 to 10 | 10 to 30 | –
8 | N#C[C@H](C[C@@H]1CCCNC1=O)NC(=O)C1CC2(CCCCC2)CN1C(=O)c1cc2ccc(Cl)cc2[nH]1 (single isomer, unassigned) [733 (Isomer 2)] | 2 to 10 | 2 to 10 | –
9 | N#C[C@H](C[C@@H]1CCCNC1=O)NC(=O)C1CC2(CN1C(=O)c1cc3cccc(Cl)c3[nH]1)CC(F)(F)C2 (single isomer, unassigned) [743 (Isomer 1)] | > 30 | – | > 30
10 | N#C[C@H](C[C@@H]1CCCNC1=O)NC(=O)C1CC2(CN1C(=O)c1cc3cccc(Cl)c3[nH]1)CC(F)(F)C2 (single isomer, unassigned) [743 (Isomer 2)] | < 2 | < 2 | –
11 | N#C[C@H](C[C@@H]1CCCNC1=O)NC(=O)C1CC2(CCC2)CN1C(=O)c1cc2ccc(Cl)cc2[nH]1 (single isomer, unassigned) [791 (Isomer 1)] | > 30 | > 30 | –
12 | N#C[C@H](C[C@@H]1CCCNC1=O)NC(=O)C1CC2(CCC2)CN1C(=O)c1cc2ccc(Cl)cc2[nH]1 (single isomer, unassigned) [791 (Isomer 2)] | < 2 | < 2 | –
13 | N#C[C@H](C[C@@H]1CCCNC1=O)NC(=O)C1CC2(CCCCC2)CN1C(=O)c1cc2c(Cl)cccc2[nH]1 (single isomer, unassigned) [801 (Isomer 1)] | < 2 | < 2 | –
14 | N#C[C@H](C[C@@H]1CCCNC1=O)NC(=O)C1CC2(CCCCC2)CN1C(=O)c1cc2c(Cl)cccc2[nH]1 (single isomer, unassigned) [801 (Isomer 2)] | 10 to 30 | 10 to 30 | –
15 | N#C[C@H](C[C@@H]1CCCNC1=O)NC(=O)C1CC2(CCC2)CN1C(=O)c1cc2c(Cl)cccc2[nH]1 (single isomer, unassigned) [803 (Isomer 1)] | > 30 | > 30 | –
16 | N#C[C@H](C[C@@H]1CCCNC1=O)NC(=O)C1CC2(CCC2)CN1C(=O)c1cc2c(Cl)cccc2[nH]1 (single isomer, unassigned) [803 (Isomer 2)] | > 30 | > 30 | –
17 | N#C[C@H](C[C@@H]1CCCNC1=O)NC(=O)C1CC2(CCC2)CN1C(=O)c1cc2c(Cl)cccc2[nH]1 (single isomer, unassigned) [803 (Isomer 3)] | < 2 | < 2 | –
18 | N#C[C@H](C[C@@H]1CCCNC1=O)NC(=O)C1CC2(CCC2)CN1C(=O)c1cc2c(Cl)cccc2[nH]1 (single isomer, unassigned) [803 (Isomer 4)] | 2 to 10 | < 2 | –
19 | N#C[C@H](C[C@@H]1CCCNC1=O)NC(=O)C1CC2(CCC(F)(F)CC2)CN1C(=O)c1cc2cccc(Cl)c2[nH]1 (single isomer, unassigned) [805 (Isomer 1)] | 10 to 30 | > 30 | –
20 | N#C[C@H](C[C@@H]1CCCNC1=O)NC(=O)C1CC2(CCC(F)(F)CC2)CN1C(=O)c1cc2cccc(Cl)c2[nH]1 (single isomer, unassigned) [805 (Isomer 2)] | < 2 | < 2 | –
21 | N#C[C@H](C[C@@H]1CCNC1=O)NC(=O)C1CC2(CCC2)CN1C(=O)c1cc2ccc(Cl)c(Cl)c2[nH]1 (single isomer, unassigned) [814 (Isomer 1)] | > 30 | > 30 | –

Row | SMILES | IC50 (SARS-CoV2 Mpro) [µM] | EC50 (229E Mpro; read-out: 229E Mpro EC50) [µM] | EC50 (229E Mpro; 229E Mpro EC50) [µM]
22 | N#C[C@H](C[C@@H]1CCNC1=O)NC(=O)C1CC2(CCC2)CN1C(=O)c1cc2ccc(Cl)c(Cl)c2[nH]1 (single isomer, unassigned) [814 (Isomer 2)] | < 2 | < 2 | –
23 | COc1ccc(Cl)c2[nH]c(C(=O)N3CC4(CCCCC4)CC3C(=O)N[C@H](C#N)C[C@@H]3CCNC3=O)cc12 (single isomer, unassigned) [882 (Isomer 1)] | < 2 | < 2 | –
24 | CC1(C)CC(C[C@@H](C#N)NC(=O)[C@H](CC2CC2)NC(=O)c2cc3cccc(Cl)c3[nH]2)C(=O)N1 (single isomer, unassigned) [1053 (Isomer 4)] | < 2 | – | –
25 | N#C[C@H](C[C@@H]1CCCNC1=O)NC(=O)[C@H](CC1CC1)NC(=O)c1cc2c(C(F)(F)F)cccc2[nH]1 [Compound 856, N-((S)-1-(((S)-1-cyano-2-((S)-2-oxopiperidin-3-yl)ethyl)amino)-3-cyclopropyl-1-oxopropan-2-yl)-4-(trifluoromethyl)-1H-indole-2-carboxamide] | – | < 2 | –
26 | N#Cc1cccc2[nH]c(C(=O)N[C@@H](CC3CC3)C(=O)N[C@H](C#N)C[C@@H]3CCCNC3=O)cc12 [Compound 858] | – | < 2 | –
27 | N#Cc1ccc2[nH]c(C(=O)N[C@@H](CC3CC3)C(=O)N[C@H](C#N)C[C@@H]3CCCNC3=O)cc2c1 [Compound 860] | – | < 2 | –
28 | N#Cc1ccc2cc(C(=O)N[C@@H](CC3CC3)C(=O)N[C@H](C#N)C[C@@H]3CCCNC3=O)[nH]c2c1 [Compound 862, 6-cyano-N-[(1S)-2-[[(1S)-1-cyano-2-[(3S)-2-oxo-3-piperidyl]ethyl]amino]-1-(cyclopropylmethyl)-2-oxo-ethyl]-1H-indole-2-carboxamide] | – | < 2 | –
29 | N#C[C@H](C[C@@H]1CCCNC1=O)NC(=O)[C@H](CC1CC1)NC(=O)c1ccc(Cl)[nH]1 [Compound 864] | – | < 2 | –
30 | N#C[C@H](C[C@@H]1CCCNC1=O)NC(=O)[C@H](CC1CC1)NC(=O)c1cc(Cl)c(Cl)[nH]1 [Compound 866, 4,5-dichloro-N-[(1S)-2-[[(1S)-1-cyano-2-[(3S)-2-oxo-3-piperidyl]ethyl]amino]-1-(cyclopropylmethyl)-2-oxo-ethyl]-1H-pyrrole-2-carboxamide] | – | < 2 | –
31 | N#C[C@H](C[C@@H]1CCCNC1=O)NC(=O)[C@H](CC1CC1)NC(=O)c1ncc(Cl)[nH]1 [Compound 868] | – | < 2 | –
32 | COCCOCCOc1cccc2[nH]c(C(=O)N[C@@H](CC(C)(C)C)C(=O)N[C@H](C#N)C[C@@H]3CCCNC3=O)cc12 [Compound 876, N-[1-[[1-cyano-2-[(3S)-2-oxo-3-piperidyl]ethyl]carbamoyl]-3,3-dimethyl-butyl]-4-[2-(2-methoxyethoxy)ethoxy]-1H-indole-2-carboxamide] | – | < 2 | –
33 | COc1ccc(Cl)c2[nH]c(C(=O)N[C@@H](CC(C)(C)C)C(=O)N[C@H](C#N)C[C@@H]3CCNC3=O)cc12 [Compound 892] | – | < 2 | –
34 | COc1cc(Cl)c2[nH]c(C(=O)N[C@@H](CC(C)(C)C)C(=O)N[C@H](C#N)C[C@@H]3CCNC3=O)cc2c1 [Compound 894] | – | < 2 | –
35 | COc1ccc(Cl)c2[nH]c(C(=O)N[C@@H](CC3CC3)C(=O)N[C@H](C#N)C[C@@H]3CCCNC3=O)cc12 [Compound 898, 7-chloro-N-[(1S)-2-[[(1S)-1-cyano-2-[(3S)-2-oxo-3-piperidyl]ethyl]amino]-1-(cyclopropylmethyl)-2-oxo-ethyl]-4-methoxy-1H-indole-2-carboxamide] | – | < 2 | –
36 | COc1cc(Cl)c2[nH]c(C(=O)N[C@@H](CC3CC3)C(=O)N[C@H](C#N)C[C@@H]3CCCNC3=O)cc2c1 [Compound 900, 7-chloro-N-((S)-1-(((S)-1-cyano-2-((S)-2-oxopiperidin-3-yl)ethyl)amino)-3-cyclopropyl-1-oxopropan-2-yl)-5-methoxy-1H-indole-2-carboxamide] | – | < 2 | –
37 | COc1cc(Cl)cc2[nH]c(C(=O)N[C@@H](CC3CC3)C(=O)N[C@H](C#N)C[C@@H]3CCCNC3=O)cc12 [Compound 906, 6-chloro-N-[(1S)-2-[[(1S)-1-cyano-2-[(3S)-2-oxo-3-piperidyl]ethyl]amino]-1-(cyclopropylmethyl)-2-oxo-ethyl]-4-methoxy-1H-indole-2-carboxamide] | – | < 2 | –
38 | COc1cccc2[nH]c(C(=O)N[C@@H](CC3CC3)C(=O)N[C@H](C#N)C[C@H]3C(=O)Nc4ccccc43)cc12 [Compound 932] | – | < 2 | –
39 | COCCOCCOc1cccc2[nH]c(C(=O)N[C@@H](CC3CC3)C(=O)N[C@H](C#N)C[C@@H]3CCCNC3=O)cc12 [Compound 1057, N-[(1S)-2-[[(1S)-1-cyano-2-[(3S)-2-oxo-3-piperidyl]ethyl]amino]-1-(cyclopropylmethyl)-2-oxo-ethyl]-4-[2-(2-methoxyethoxy)ethoxy]-1H-indole-2-carboxamide] | – | < 2 | –
40 | CN(C(=O)c1cc2cccc(Cl)c2[nH]1)[C@@H](CC1CC1)C(=O)N[C@H](C#N)C[C@@H]1CCCNC1=O [Compound 1137] | – | 2 to 10 | –
41 | COc1cc(Cl)cc2[nH]c(C(=O)N[C@@H](CC(C)(C)C)C(=O)N[C@H](C#N)C[C@@H]3CCCNC3=O)cc12 [Compound 1149] | – | < 2 | –
